Assay results published in US7868014B2, “1-(hetero)aryl-3-amino-pyrrolidine derivatives for use as mGluR3 antagonists” (Eli Lilly and Company, priority 2004, dated 2011).
Counter-ions that a name gives are not always drawn.

How the values were obtained:
[1] = biological target: T1, human mGluR3 (Homo sapiens, UniProt Q14832); experiment: Antagonism of glutamate-induced increase in intracellular calcium (FLIPR) in mGluR3-expressing AV12 cells; type: cell-based; settings: antagonism of 50 μM glutamate-induced calcium response, AV12 cells expressing human mGluR3 and Gα15, Fluo-3AM
T1 construct: expressed in transfected cells; host or cells: AV12 cells (adenovirus-transformed Syrian hamster cell line) stably expressing RGT and GLT, co-transfected with Galpha15
T1 sequence (Q14832 23-879): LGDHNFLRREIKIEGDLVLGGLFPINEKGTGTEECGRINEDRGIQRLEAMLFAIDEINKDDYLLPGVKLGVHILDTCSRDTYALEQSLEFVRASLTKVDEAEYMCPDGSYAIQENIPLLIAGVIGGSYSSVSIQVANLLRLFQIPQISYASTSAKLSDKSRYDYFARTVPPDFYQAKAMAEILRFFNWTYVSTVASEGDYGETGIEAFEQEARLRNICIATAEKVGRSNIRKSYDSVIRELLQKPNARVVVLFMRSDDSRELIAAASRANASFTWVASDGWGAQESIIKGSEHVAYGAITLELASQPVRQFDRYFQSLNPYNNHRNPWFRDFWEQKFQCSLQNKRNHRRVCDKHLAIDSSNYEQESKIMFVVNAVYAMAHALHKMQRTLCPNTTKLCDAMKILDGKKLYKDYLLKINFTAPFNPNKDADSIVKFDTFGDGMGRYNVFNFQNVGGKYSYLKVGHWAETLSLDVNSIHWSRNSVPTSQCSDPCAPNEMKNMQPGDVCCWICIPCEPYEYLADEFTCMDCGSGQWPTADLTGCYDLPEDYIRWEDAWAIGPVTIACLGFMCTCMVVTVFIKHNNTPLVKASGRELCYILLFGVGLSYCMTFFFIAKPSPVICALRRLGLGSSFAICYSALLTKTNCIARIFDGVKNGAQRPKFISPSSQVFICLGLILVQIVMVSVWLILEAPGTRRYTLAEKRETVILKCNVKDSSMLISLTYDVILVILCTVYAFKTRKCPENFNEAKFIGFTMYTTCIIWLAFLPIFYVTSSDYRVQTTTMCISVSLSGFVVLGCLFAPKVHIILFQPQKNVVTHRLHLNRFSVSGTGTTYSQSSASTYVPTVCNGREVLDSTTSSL
Experimental: Antagonism of Glutamate-Induced Increase in Intracellular Calcium with a mGluRs Expressing Cell Line
Introduce human mGluR3 and the promiscuous G-protein, Galpha15 (Gα15) into AV12 cells (an adenovirus-transformed Syrian hamster cell line) that stably express RGT (Rat Glutamate Transporter) and GLT (Glutamate Like Transporter). Maintain the expression of these four exogenous genes by culturing the cells in DMEM (Gibco, 11960-051) supplemented with 5% dialyzed fetal bovine serum, 2 mM glutamine, 1 mM sodium pyruvate, 10 mM HEPES, 100 μg/mL G418, 1 μg/mL puromycin, 1 μg/mL blastocidin, and 100 μg/mL zeocin. Passage confluent cultures weekly. The expression of Gα15 allows the change of the signaling pathway of the mGlu3 receptor to one that can be easily monitored through the release of intracellular calcium before and after the addition of drugs on a Fluorometric Imaging Plate Reader (i.e. FLIPR, Molecular Devices). Use the following buffers throughout as the Assay Buffer: HBSS (BioWhittaker, 10-527F) supplemented with 20 mM HEPES (Biowhittaker, 17-737E) at pH 7.4. Prepare a stock solution of 4 mM Fluo-3AM (Molecular Probes, F-1241), a calcium sensitive dye by adding 2.21 mL of 20% pluronate in DMSO to a vial containing 10 mg of Fluo-3AM. Sonicate the solution for 30 minutes to facilitate solubilization of the Fluo-3AM and then store at −20° C. Prepare the working solution of 8 μM Fluo-3AM by diluting the stock Fluo-3AM (4 mM) 500-fold into Assay Buffer. Harvest cells 24 h prior to assay using Hank's based cell dissociation solution (Specialty Media, a division of Cell & Molecular Technologies, S-004-B) and plate at a density of 50,000 cells per well in a 96-well poly-D-lysine treated black walled, clear bottom plate (Becton Dickinson, 356640). Incubate cells with 8 μM Fluo-3AM (50 μL per well) for 2 hours at 25° C. Following the dye-loading of the cells, remove the 8 μM Fluo-3AM and replace with Assay Buffer pre-warmed to 37° C. (50 μL per well). Ready the cells for assay on the FLIPR. Set the stage of the FLIPR to 34.5° C. prior to initiation of the assay. Perform a two addition FLIPR assay. Pre-warm the reagents for both additions (compounds and glutamate) to 37° C. prior to initiation of the assay. Add the test compound to the cell plate (50 μL per well) after taking an initial fluorescent read of the cell plate for 10 seconds. Test compounds in a 10 point concentration response curve starting at a final concentration on the cells of 12.5 μM with 3-fold dilutions in Assay Buffer/1.25% DMSO. Collect data every second for the first 30 seconds and then every 3 seconds until the second addition made at 2 minutes. Perform the second addition of 100 μM glutamate in Assay Buffer (100 μL per well for a final glutamate concentration of 50 μM on the cells) 2 minutes after the addition of compound. Collect the second addition data every second for 30 seconds and then every 3 seconds until the end of the run at total time of 3.25 minutes. Measure the response as maximal peak height in Relative Fluorescent Units (RFUs). Define the assay window as the maximal response obtained by 50 μM glutamate minus the response obtained by buffer alone. Express the results as a percent of the assay window.

[2] = tested on: male Sprague-Dawley rats; experiment: Rat dural plasma protein extravasation (PPE) model; type: in vivo; settings: 60 min before trigeminal ganglion stimulation, dose that gives an extravasation ratio of approximately 1
Experimental: Rat Dural Plasma Protein Extravasation (PPE) Model
Prepare 100 μg/ml stock solution of test compound in a DMSO/saline (20%/80% v/v) solution and make subsequent dilutions with saline. Dose male Sprague-Dawley rats from Harlan Laboratories (250-350 g) with test compound or saline vehicle by oral gavage (2 mL/kg) or intravenous tail-vein injection (1 mL/kg) 45 minutes prior to administration of anesthesia and placement in a stereotaxic frame for implantation of stimulating electrodes. The rats dosed via the oral route are fasted overnight prior to dosing. Fifteen minutes prior to trigeminal ganglion stimulation, the rats are anesthetized with Nembutal (60 mg/kg, ip.) and placed in a stereotaxic frame (David Kopf Instruments) with the incisor bar set at −2.5 mm. […]
A fluorescence microscope (Zeiss) equipped with a grating monochromator and a spectrophotometer is used to quantify the amount of FITC-BSA dye in each dural sample. […] This facilitates the computer-controlled movement of the stage, with fluorescence measurements at 25 points (500 μm steps) on each dural sample. […] The extravasation ratio (i.e. the ratio of the amount of extravasation in the dura from the stimulated side compared to the unstimulated side) is calculated. […]

| IC50 [1] | Structure (SMILES) | ID100 (μg/mL) i.v. ([2]; i.v. (tail-vein injection)) | ID100 (μg/mL) p.o. ([2]; p.o. (oral gavage)) |
| --- | --- | --- | --- |
| 3.91 µM | CC(=O)c1ccc(N2CC[C@H](NCc3ccc(Cl)cc3Cl)C2)s1 [Example 6, (S)-1-{5-[3-(2,4-Dichlorobenzylamino)-pyrrolidin-1-yl]-thiophen-2-yl}-ethanone] |  |  |
| 0.34 µM | Clc1ccc(CN[C@H]2CCN(c3ncc(Br)cn3)C2)c(Cl)c1 [Example 28, (S)-[1-(5-Bromopyrimidin-2-yl)-pyrrolidin-3-yl]-(2,4-dichlorobenzyl)-amine] | 3 µg/mL | 3 µg/mL |
| 1.18 µM | N#Cc1cnc(N2CC[C@H](NCc3ccc(Cl)cc3Cl)C2)nc1 [Example 123, (S)-2-[3-(2,4-Dichlorobenzylamino)-pyrrolidin-1-yl]-pyrimidine-5-carbonitrile] |  |  |
| 0.191 µM | O=[N+]([O-])c1ccc(N2CC[C@H](NCc3ccc(Cl)cc3Cl)C2)nc1 [Example 1, (S)-(2,4-Dichlorobenzyl)-[1-(5-nitropyridin-2-yl)-pyrrolidin-3-yl]-amine] |  |  |
| 0.607 µM | Clc1ccc(CN[C@H]2CCN(c3ccc(I)cn3)C2)c(Cl)c1 [Example 23, (S)-(2,4-Dichlorobenzyl)-[1-(5-iodopyridin-2-yl)-pyrrolidin-3-yl]-amine hydrochloride] |  |  |
| 4.93 µM | FC1CN(c2ncc(Br)cn2)CC1NCc1ccc(Cl)cc1Cl (centres unmarked) [Example 101, [1-(5 -Bromopyrimidin-2-yl)-4-fluoropyrrolidin-3-yl]-(2,4-dichlorobenzyl)-amine hydrochloride] |  |  |
| 0.143 µM | C#Cc1ccc(N2CC[C@H](NCc3ccc(Cl)cc3Cl)C2)nc1 [Example 87, (S)-(2,4-Dichlorobenzyl)-[1-(5-ethynylpyridin-2-yl)-pyrrolidin-3-yl]-amine] |  |  |
| 2.27 µM | Clc1ccc(CN[C@H]2CCN(c3ccc(-c4ccccc4)cn3)C2)c(Cl)c1 [Example 108, (S)-(2,4-Dichlorobenzyl)-[1-(5-phenylpyridin-2-yl)-pyrrolidin-3-yl]-amine] |  |  |
| 1.65 µM | FC(F)(F)c1ccc(CN[C@H]2CCN(c3ncc(Br)cn3)C2)c(Cl)c1 [Example 112, (3S)-[1-(5-Bromopyrimidin-2-yl)-pyrrolidin-3-yl]-(2-chloro-4-trifluoromethylbenzyl)-amine] |  |  |
| 1.68 µM | O=C1CN(c2ncc(Br)cn2)CC1NCc1ccc(Cl)cc1Cl (centres unmarked) [Example 121, 1-(5-Bromopyrimidin-2-yl)-4-(2,4-dichlorobenzylamino)-pyrrolidin-3-one] |  |  |
| 5.78 µM | Fc1ccc(N2CC[C@H](NCc3ccccc3I)C2)cn1 [Example 59, (S)-[1-(6-Fluoropyridin-3-yl)-pyrrolidin-3-yl]-(2-iodobenzyl)-amine hydrochloride] |  |  |
| 0.077 µM | Clc1cnc(N2CC[C@H](NCc3ccc(Cl)cc3Cl)C2)nc1 [Example 134, (S)-[1-(5-Chloropyrimidin-2-yl)-pyrrolidin-3-yl]-(2,4-dichlorobenzyl)-amine] |  |  |
